Reference: US12642838B2, “Method of modulating sensitivity to tyrosine kinase inhibitor” (SINGAPORE HEALTH SERVICES PTE LTD, priority 2020, dated 2026)

Assays:
[1] = test system: NCC-HN1, NCC-HN120M and NCC-HN182M cells; experiment: Cell proliferation assay and IC50 determination, TKI and EV co-treatment, HNSCC cell line panel; format: cell-based, human
Method: To test the response of head and neck squamous cell carcinomas (HNSCC) cell lines to tyrosine kinase inhibitors (TKIs) in the presence of EGFR exosomal isoform D, three primary cell lines, namely NCC-HN1, NCC-HN120M and NCC-HN182M, were used. […] NCC-HN1, NCC-HN120M and NCC-HN182M cells were treated with eight tyrosine kinase inhibitors, each individually, in the presence of exosome (EV) derived from NCC-HN19 and NCC-HN137P cells.
Cells were seeded in 100 μl complete growth medium at a density of 1,000-3,000 cells/well in 96-well tissue culture plates. […] Plates were incubated for 72 hours at 37° C. after which cell viability was assessed using CellTitre-Glo® Luminescent Assay according to the manufacturer's protocol (Promega, Madison, WI).

[2] = Mouse body weight after afatinib and EV co-treatment; format: in vivo; conditions: daily oral afatinib with 72-hourly peri-tumoural EV injection
Text: Arrow indicates commencement of daily oral afatinib administration with 72-hourly peri-tumoural extracellular vesicle (EV) injection. This confirms that the therapy delivered to the mice in FIG. 25 had minimal side effects/toxicity during the course of the experiment.

NCC-HN1 cells = experiment: Cell proliferation assay (CellTitre-Glo), TKI and EV co-treatment, NCC-HN1; format: cell-based, human
Method: Extracellular vesicle (EV) collection and isolation were carried out as previously described*. Briefly, cells were grown in T-175 tissue culture flasks with conditioning medium (NCM). After 72 hours incubation, the NCM was collected and spun down at 1,200 rpm for 10 minutes to remove cell debris. The supernatant was then filtered through a 0.22 um filter (PES) and the filtrate was loaded into Amicon® Ultra-15 Centrifugal Filter Unit (Merck Millipore, Kenilworth, NJ). The medium was concentrated and subjected to a final wash with 1×PBS before reconstituting to 1/60 of the original volume. To reduce extracellular vesicle batch variation, every five extracellular vesicle batches were pooled into a single batch for analysis and treatment. *Reference: Rodrigues-Junior, D. M. et al. Circulating extracellular vesicle-associated TGFβ3 modulates response to cytotoxic therapy in head and neck squamous cell carcinoma. Carcinogenesis 1-13 (2019). doi:10.1093/carcin/bgz148
Cells were seeded in 100 μl complete growth medium at a density of 1,000-3,000 cells/well in 96-well tissue culture plates. Cells were washed with 1×PBS to remove remaining medium residue prior treatment. […] Plates were incubated for 72 hours at 37° C. after which cell viability was assessed using CellTitre-Glo® Luminescent Assay according to the manufacturer's protocol (Promega, Madison, WI).

## COc1cc2ncnc(Nc3ccc(F)c(Cl)c3)c2cc1NC(=O)/C=C/CN1CCCCC1 [dacomitinib]
[1]; EV from 293T, FIG. 11H (NCC-HN1 and NCC-HN120M)
  sensitivity of HNSCC cells to the TKI on co-treatment with exosomes containing overexpressed EGFR isoform D: sensitized
[1]; EV from HN19 and HN137P applied to HN1, HN120M, HN182M
  sensitivity of TKI-resistant cells to the TKI on application of EVs from sensitive cells: sensitises these resistant cells

## CN(C)C/C=C/C(=O)Nc1cc2c(Nc3ccc(F)c(Cl)c3)ncnc2cc1O[C@H]1CCOC1 [afatinib]
[2]
  mouse body weight: no changes in mouse body weight

## O=C1NC(=NS(=O)(=O)c2cccc3ccccc23)S/C1=C\c1ccc(Br)cc1 [PitStop2]
NCC-HN1 cells; 1 μM PS2 with 293T pBob-IsoD EV
  effect on the sensitising effect of isoform D containing EVs: reduces the sensitising effect of isoform D containing EVs

## COc1cc2ncnc(Nc3ccc(F)c(Cl)c3)c2cc1OCCCN1CCOCC1 [gefitinib]
NCC-HN1 cells; no exosome treatment
  response of cells to TKI without exosome: normally resistant
